Assay results published in ChEMBL document CHEMBL1150977, “A quantitative analysis of kinase inhibitor selectivity” (Nat Biotechnol, 2008).

Assays:
[1] = target: Serine/threonine-protein kinase N1 (Homo sapiens, UniProt Q16512)
Ephrin type-A receptor 3 = target: T1, Ephrin type-A receptor 3 (Homo sapiens, UniProt P29320)
T1 sequence (P29320 whole entry): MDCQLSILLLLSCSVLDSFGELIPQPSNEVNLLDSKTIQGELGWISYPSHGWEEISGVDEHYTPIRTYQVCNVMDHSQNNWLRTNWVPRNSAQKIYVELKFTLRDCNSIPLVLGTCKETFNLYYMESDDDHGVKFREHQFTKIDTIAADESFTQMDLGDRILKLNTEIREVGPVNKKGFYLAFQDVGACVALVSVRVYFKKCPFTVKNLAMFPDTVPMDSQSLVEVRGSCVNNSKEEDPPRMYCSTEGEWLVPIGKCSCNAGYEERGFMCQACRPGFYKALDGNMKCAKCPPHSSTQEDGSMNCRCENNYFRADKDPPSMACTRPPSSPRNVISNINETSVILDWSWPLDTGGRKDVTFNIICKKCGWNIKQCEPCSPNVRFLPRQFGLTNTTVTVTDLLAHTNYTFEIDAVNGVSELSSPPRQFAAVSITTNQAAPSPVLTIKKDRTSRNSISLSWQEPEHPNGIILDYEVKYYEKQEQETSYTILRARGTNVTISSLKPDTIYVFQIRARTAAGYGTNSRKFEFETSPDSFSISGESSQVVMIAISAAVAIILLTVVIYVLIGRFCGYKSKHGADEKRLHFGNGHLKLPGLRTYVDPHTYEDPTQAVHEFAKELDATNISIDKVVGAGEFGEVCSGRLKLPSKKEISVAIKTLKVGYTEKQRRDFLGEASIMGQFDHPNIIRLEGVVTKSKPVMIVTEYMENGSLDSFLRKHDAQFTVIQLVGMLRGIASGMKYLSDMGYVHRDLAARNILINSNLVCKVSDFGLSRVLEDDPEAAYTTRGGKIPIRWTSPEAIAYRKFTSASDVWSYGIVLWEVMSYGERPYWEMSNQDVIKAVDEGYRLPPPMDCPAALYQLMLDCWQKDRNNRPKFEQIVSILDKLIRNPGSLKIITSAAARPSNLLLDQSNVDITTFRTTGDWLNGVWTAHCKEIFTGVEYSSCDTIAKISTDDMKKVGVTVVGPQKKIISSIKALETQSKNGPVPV

[2] = target: T2, Mitogen-activated protein kinase 12 (Homo sapiens, UniProt P53778)
T2 sequence (P53778 whole entry): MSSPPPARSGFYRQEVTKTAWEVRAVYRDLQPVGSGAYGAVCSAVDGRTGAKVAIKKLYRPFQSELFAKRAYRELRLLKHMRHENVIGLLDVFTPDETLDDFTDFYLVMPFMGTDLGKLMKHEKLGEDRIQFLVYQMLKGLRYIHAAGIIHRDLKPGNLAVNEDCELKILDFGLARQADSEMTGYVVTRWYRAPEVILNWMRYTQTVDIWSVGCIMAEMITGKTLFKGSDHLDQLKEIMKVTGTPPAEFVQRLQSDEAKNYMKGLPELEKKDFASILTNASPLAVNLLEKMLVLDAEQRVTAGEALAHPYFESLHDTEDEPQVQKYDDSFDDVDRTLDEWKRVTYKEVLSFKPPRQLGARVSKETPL

[3] = target: Mitogen-activated protein kinase 9 (Homo sapiens, UniProt P45984)
[4] = target: T3, 3-phosphoinositide-dependent protein kinase 1 (Homo sapiens, UniProt O15530)
T3 sequence (O15530 whole entry): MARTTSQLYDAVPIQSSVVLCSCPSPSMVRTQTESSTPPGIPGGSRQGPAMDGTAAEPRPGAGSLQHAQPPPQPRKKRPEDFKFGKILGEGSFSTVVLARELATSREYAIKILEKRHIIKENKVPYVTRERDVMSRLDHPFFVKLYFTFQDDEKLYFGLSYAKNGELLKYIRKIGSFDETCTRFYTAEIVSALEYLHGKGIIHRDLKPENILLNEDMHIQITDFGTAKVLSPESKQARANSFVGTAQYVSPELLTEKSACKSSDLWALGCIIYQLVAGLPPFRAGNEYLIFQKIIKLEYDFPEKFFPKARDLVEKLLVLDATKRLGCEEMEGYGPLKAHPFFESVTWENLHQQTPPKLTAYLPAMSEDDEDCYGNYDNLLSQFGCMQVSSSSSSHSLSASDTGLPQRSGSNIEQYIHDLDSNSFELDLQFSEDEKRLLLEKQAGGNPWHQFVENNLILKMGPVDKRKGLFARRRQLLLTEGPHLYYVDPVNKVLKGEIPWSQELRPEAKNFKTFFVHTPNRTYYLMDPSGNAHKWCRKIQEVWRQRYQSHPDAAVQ

Sequence of Mitogen-activated protein kinase 9 (P45984 whole entry): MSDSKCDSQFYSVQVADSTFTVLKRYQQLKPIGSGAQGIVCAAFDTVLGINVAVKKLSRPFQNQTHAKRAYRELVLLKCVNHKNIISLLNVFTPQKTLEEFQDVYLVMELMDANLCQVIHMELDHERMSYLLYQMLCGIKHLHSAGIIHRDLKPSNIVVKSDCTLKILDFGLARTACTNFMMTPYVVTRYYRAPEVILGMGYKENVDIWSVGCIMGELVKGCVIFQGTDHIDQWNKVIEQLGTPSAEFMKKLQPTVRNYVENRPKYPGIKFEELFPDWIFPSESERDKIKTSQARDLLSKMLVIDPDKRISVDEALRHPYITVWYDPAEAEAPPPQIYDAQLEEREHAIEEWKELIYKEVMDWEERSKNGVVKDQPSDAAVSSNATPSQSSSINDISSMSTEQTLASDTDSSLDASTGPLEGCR
Sequence of Serine/threonine-protein kinase N1 (Q16512 whole entry): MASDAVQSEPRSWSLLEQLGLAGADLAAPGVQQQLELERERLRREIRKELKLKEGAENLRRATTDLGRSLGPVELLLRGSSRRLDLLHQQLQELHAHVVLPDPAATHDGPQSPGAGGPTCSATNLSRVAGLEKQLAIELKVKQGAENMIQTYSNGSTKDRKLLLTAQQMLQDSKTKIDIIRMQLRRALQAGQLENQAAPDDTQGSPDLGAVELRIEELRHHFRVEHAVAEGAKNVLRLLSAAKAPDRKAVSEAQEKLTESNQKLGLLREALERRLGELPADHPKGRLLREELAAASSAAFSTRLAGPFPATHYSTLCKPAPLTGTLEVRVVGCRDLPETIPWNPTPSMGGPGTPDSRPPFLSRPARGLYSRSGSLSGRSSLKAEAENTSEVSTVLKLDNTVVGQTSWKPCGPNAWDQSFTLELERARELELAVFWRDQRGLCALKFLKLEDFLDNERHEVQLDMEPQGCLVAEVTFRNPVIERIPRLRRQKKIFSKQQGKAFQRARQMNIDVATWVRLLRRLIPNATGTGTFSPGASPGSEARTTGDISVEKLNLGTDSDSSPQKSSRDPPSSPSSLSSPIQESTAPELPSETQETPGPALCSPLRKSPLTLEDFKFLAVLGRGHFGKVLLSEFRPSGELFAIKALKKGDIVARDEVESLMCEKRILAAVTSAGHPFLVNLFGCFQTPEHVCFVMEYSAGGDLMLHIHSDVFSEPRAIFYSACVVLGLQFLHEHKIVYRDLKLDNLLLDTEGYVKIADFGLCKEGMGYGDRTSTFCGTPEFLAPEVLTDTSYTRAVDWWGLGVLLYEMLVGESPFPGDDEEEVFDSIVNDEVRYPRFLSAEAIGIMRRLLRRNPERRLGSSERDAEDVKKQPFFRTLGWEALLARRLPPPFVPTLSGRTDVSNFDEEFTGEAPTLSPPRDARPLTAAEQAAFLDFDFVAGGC

What does the source list for COCC(=O)NC/C=C/c1ccc2ncnc(Nc3ccc(Oc4ccc(C)nc4)c(C)c3)c2c1 [CP-724714]?
Kd [1]: > 10 µM; Kd (Ephrin type-A receptor 3): > 10 µM; Kd [2]: > 10 µM; Kd [3]: > 10 µM; Kd [4]: > 10 µM

What does the source list for NC(=O)c1ccc(-c2nc(-c3ccc4c(c3)OCO4)c(-c3ccccn3)[nH]2)cc1 [SB-431542]?
Kd [1]: > 10 µM; Kd (Ephrin type-A receptor 3): > 10 µM; Kd [2]: > 10 µM; Kd [3]: > 10 µM; Kd [4]: > 10 µM

Which results are given for Nc1nc(Nc2ccc(S(N)(=O)=O)cc2)nn1C(=O)c1c(F)cccc1F [JNJ-7706621]?
Kd [1]: > 10 µM; Kd (Ephrin type-A receptor 3): > 10 µM; Kd [2]: > 10 µM; Kd [4]: 3.1 µM

Which results are given for CCOc1cc2ncc(C#N)c(Nc3ccc(F)c(Cl)c3)c2cc1NC(=O)/C=C/CN(C)C [PELITINIB]?
Kd [1]: > 10 µM; Kd [2]: > 10 µM; Kd [3]: > 10 µM; Kd [4]: > 10 µM

How did the Kd [1] turn out when Oc1ccc(-c2nc(-c3ccncc3)c(-c3ccc(F)cc3)[nH]2)cc1 [SB-202190] was run?
Its Kd is greater than 10 µM.

And the Kd (Ephrin type-A receptor 3)?
The Kd was greater than 10 µM.

And the Kd [4]?
The Kd was greater than 10 µM.
